Entries after “also recorded” stand apart in the source; their conditions may differ.
Tests used:
Assay type in all cases: cell-based
tolerant CD4+ T-cells = assay: JQ1-treated PEM co-cultured with tolerant T-cells and OVA peptide, IFN-γ ELISA; conditions: PEM treated with JQ1+LPS 24 hours, co-culture 48 hours with OVA peptide, tolerant CD4+ T-cells from lymphoma bearing hosts
Description: (§1) PEM were treated with different concentrations of JQ1 in presence and absence of LPS. After 24 hours, PEM was washed twice with warm RPMI. Naïve CD4 T-cells or tolerant T-cells were added to the plated macrophages with or without OVA peptide and co-cultured for 48 hours. IL-2 and IFN-γ production were determined by ELISA. Without OVA peptide, there was no production of IL-2 or IFN-γ.

IL-10 [1] = assay: IL-10 production by ELISA in PEM treated with JQ1 with and without LPS; conditions: PEM (PEM or bone marrow derived DCs), 24 hours, supernatant ELISA
Description: (§2) Macrophages (PEM) were treated with different concentrations of JQ1 in presence and absence of LPS (stimulant for macrophages). After 24 hours, supernatant was collected and IL -10 & IL-6 production was determined by ELISA.

PD-L1 [2] = assay: PD-L1 mRNA expression by real time PCR in PEM; conditions: LPS+JQ1 combination
Naïve CD4 T-cells = assay: JQ1-treated PEM co-cultured with naive CD4 T-cells and OVA peptide, cytokine ELISA; conditions: PEM treated 24 hours, co-culture 48 hours with OVA peptide
Description: as §1

PD-L2 = assay: Flow cytometry of PEM with anti-PD-L2; conditions: JQ1 & LPS versus LPS alone
Description: (§3) PEM were treated with different concentrations of JQ1 in presence and absence of LPS. Flow cytometry was performed on PEM treated with different concentrations of JQ1 in presence and absence of LPS using anti-PD-Ll and anti-PD-L2 as well as isotype as a control.

IL-10 [3] = assay: IL-10 mRNA expression by real time PCR in PEM; conditions: PEM or DCs, increasing JQ1, LPS stimulation
PD-L1 [4] = assay: Flow cytometry of PEM with anti-PD-L1; conditions: JQ1 & LPS versus LPS alone, treated versus untreated APCs
Description: as §3

IL-6 [5] = assay: IL-6 production by ELISA in PEM treated with JQ1 with and without LPS; conditions: PEM (PEM or bone marrow derived DCs), 24 hours, supernatant ELISA
Description: as §2

PEM = PEM cell viability after 24 hours JQ1
Description: In order to determine the best working concentration of JQ1 in PEM, plated PEM (96-well plate) were treated with increased concentration of JQ1 for 24 hours then cell viability was determined. A threshold of 100 to 800 nanomolar was determined to be acceptable.

IL-6 [6] = assay: IL-6 mRNA expression by real time PCR in PEM; conditions: PEM or DCs, increasing JQ1, LPS stimulation

`Cc1sc2c(c1C)C(c1ccc(Cl)cc1)=N[C@@H](CC(=O)OC(C)(C)C)c1nnc(C)n1-2` [JQ1, (S)-tert-butyl 2-(4-(4-chlorophenyl)-2,3,9-trimethyl-6H-thieno[3,2-f][1,2,4]triazolo[4,3-a][1,4]diazepin-6-yl)acetate] was tested, and the “IFN-gamma production by tolerant T-cells / responsiveness of tolerant T-cells” value (tolerant CD4+ T-cells) was “enhanced IFN-gamma production; also recorded: restoration of tolerant T-cell function”, the “IFN-gamma production by tolerant T-cells / responsiveness of tolerant T-cells” value (tolerant CD4+ T-cells; listed as JQ 1) was “able to restore the responsiveness; also recorded: capable of restoring the responsiveness” and the IL-10 production (IL-10 [1]) was “decreased production”. The IL-10 production (IL-10 [1]; listed as JQ 1) was “decreased expression and protein production”, the “PDL1 mRNA expression” value (PD-L1 [2]) was “decreased expression” and the “IFN-gamma production by CD4 T-cell” value (Naïve CD4 T-cells) was “increase in dose dependent production”. For the same compound, the “IL-2 production by CD4 T-cell” value (Naïve CD4 T-cells) was “increase in dose dependent production”, the “IFN-gamma production by CD4 T-cell” value (Naïve CD4 T-cells; listed as JQ 1) was “increased production” and the “IL-2 production by CD4 T-cell” value (Naïve CD4 T-cells; listed as JQ 1) was “increased production”. For the same compound, the “PD-L2 expression (flow cytometry)” value (PD-L2) was “relatively decreased expression”, the “IL-10 expression (mRNA)” value (IL-10 [3]) was “decreased expression” and the “PD-L1 expression (flow cytometry)” value (PD-L1 [4]) was “relatively decreased expression”. For the same compound, the “PD-L1 expression (flow cytometry)” value (PD-L1 [4]; listed as JQ 1) was “decreased expression; also recorded: lower expression”, the IL-6 production (IL-6 [5]) was “decreased production” and the IL-6 production (IL-6 [5]; listed as JQ 1) was “decreased expression and protein production”. The “acceptable working concentration threshold (cell viability)” value (PEM; PEM, 96-well plate, 24 hours) was 100 to 800 nM, the “viability of treated APCs” value (PEM; at the concentration used (FIG. 1)) was “did not affect the viability” and the “IL-6 expression (mRNA)” value (IL-6 [6]) was “decreased expression”.

Source: patent publication US10813939B2, “Bromodomain inhibitor as adjuvant in cancer immunotherapy” (H. LEE MOFFITT CANCER CENTER AND RESEARCH INSTITUTE, INC., priority 2014, dated 2020)
